In general, IC50 refers to the point on the concentration scale where inhibition reaches its midpoint. High values mean weaker potency, low ones greater potency.

Molecules are shown by their SMILES. The source made the active and inactive calls. The calls are words filed in the database; no cut-off is given here.

The source of these data is ChEMBL document CHEMBL4219154, “Design, synthesis, nuclear localization, and biological activity of a fluorescent duocarmycin analog, HxTfA” (Bioorg Med Chem Lett, 2018).

Data set [1] can be described thus: Drug uptake in nucleus of human A549 cells at 1 uM after 24 hrs by propidium iodide staining based confocal microscopy. The data set is classed as ADME, subcellular. The note with it: a549, 24 h.
In data set [2] the test system is Escherichia coli. The data set can be described thus: Induction of DNA cleavage at AT-mixed sequence 5'-TTTTA-3'(843) in Escherichia coli pUC18 DNA at 0.1 to 30 uM after 5 hrs by electrophoresis analysis.
In data set [3] the test system is A549. The data set can be described thus: Induction of apoptosis in human A549 cells assessed as increase in gamma-H2AX level at 0.1 to 10 uM incubated for 5 hrs followed by 24 hrs incubation in drug free medium by immunofluorescence assay. The data set is classed as functional, cell-based.
Data set [4] can be described thus: Drug uptake in nucleus of human A549 cells at 50 to 100 uM after 24 hrs by mitrotracker red CMXRos staining based fluorescence microscopy. The settings on record: a549, 24 h. The data set is classed as ADME, subcellular.
The test system of data set [5] is A549. The data set can be described thus: Cytotoxicity against human A549 cells after 4 days by MTT assay. The data set is classed as functional, cell-based. The settings on record: A549, 96 h. For orientation: Formazan colour is commonly taken as a measure of viable cells.
Data set [6] has as its system A549. The data set can be described thus: Induction of apoptosis in human A549 cells assessed as decrease in Bcl-xL level at 0.1 to 20 uM incubated for 5 hrs followed by 24 hrs incubation in drug free medium by immunoblotting based confocal microscopy. The data set is classed as functional, cell-based. For orientation: Immunoblotting shows a protein as a band on a membrane.

The subject of data set [7] is Escherichia coli. The data set can be described thus: Alkylating activity at N3 position of 5'-AAAAA-3' (865) in Escherichia coli pUC18 DNA at 1 uM after 5 hrs by electrophoresis analysis. The data set is classed as functional.
The next data set relates to Plasmodium falciparum. The data set can be described thus: Antiplasmodial activity against Plasmodium falciparum 3D7 infected in red blood cells after 48 hrs. The data set is classed as functional, organism-based. The note with it: 3D7, 48 h.
Data set [8] deals with A549. The data set can be described thus: Induction of apoptosis in human A549 cells assessed as increase in gamma-H2AX level at 0.1 to 5 uM incubated for 5 hrs followed by 24 hrs incubation in drug free medium by confocal microscopy. The data set is classed as functional, cell-based.
Data set [9] deals with A549. The data set can be described thus: Induction of apoptosis in human A549 cells assessed as decrease in survivin level at 1 to 20 uM incubated for 5 hrs followed by 24 hrs incubation in drug free medium by immunoblotting based confocal microscopy. The data set is classed as functional, cell-based.
In data set [10] the test system is A549. The data set can be described thus: Induction of apoptosis in human A549 cells assessed as increase in cleaved caspase 3 level at 1 uM incubated for 5 hrs followed by 24 hrs incubation in drug free medium by immunofluorescence assay. The data set is classed as functional, cell-based.
Data set [11] deals with A549. The data set can be described thus: Cytotoxicity against human A549 cells after 3 days by MTT assay. The data set is classed as functional, cell-based. The settings on record: A549, 72 h.
The subject of data set [12] is A549. The data set can be described thus: Induction of apoptosis in human A549 cells assessed as decrease in survivin level at 0.1 uM incubated for 5 hrs followed by 24 hrs incubation in drug free medium by immunoblotting based confocal microscopy. The data set is classed as functional, cell-based.
The test system of the next data set is B16. The data set can be described thus: Cytotoxicity against mouse B16 cells after 3 days by MTT assay. The data set is classed as functional, cell-based. The note with it: B16, 72 h.
The test system of data set [13] is Escherichia coli. The data set can be described thus: Alkylating activity at N3 position of 5'-AAAAA-3' (865) in Escherichia coli pUC18 DNA at 0.1 uM after 5 hrs by electrophoresis analysis. The data set is classed as functional.
Data set [14] relates to A549. The data set can be described thus: Induction of apoptosis in human A549 cells assessed as decrease in Bcl-xL level at 0.05 to 20 uM incubated for 5 hrs followed by 24 hrs incubation in drug free medium by immunoblotting based confocal microscopy. The data set is classed as functional, cell-based.

Consider `COc1ccc(-c2nc3ccc(C(=O)N4CC(CCl)c5c4cc(O)c4ccoc54)cc3[nH]2)cc1` (stereo not given), for which the Drug uptake result in data set [1] and in data set [4] was “Active” in each case. The result with Escherichia coli [2], in the data set with A549 [3], with Escherichia coli [7], in the data set on A549 [8], in the data set with A549 [9] and in the data set with A549 [10] was Active. For the same molecule, the IC50 was 26 nM in the data set on A549 [5] and 3.7 nM in the data set on Plasmodium falciparum. For the same molecule, the result in the data set with A549 [6] was inactive.
Take `COc1cc2cc(C(=O)N3CC(CCl)c4c3cc(O)c3ccoc43)[nH]c2c(OC)c1OC` (stereo not given): the IC50 with A549 [11] turned out to be 53 nM; with A549 [5] it was 3.7 nM; in the data set on B16, 40 nM; in the data set with Plasmodium falciparum it was 0.064 nM. Also, the result in the data set with A549 [3], in the data set on A549 [12], in the data set with Escherichia coli [13] and in the data set with A549 [8] was Active. For the same molecule, the result in the data set on A549 [14] was inactive.
